Reference: PubChem BioAssay (NCI)
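All cell lines were grown in 96-well plates and treated with compound for 48 hours. TGI denotes the concentration required for complete inhibition of growth.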

Columns and labels:
Assay in all cases: NCI anticancer screen, dose series, 48 h
[1] = test system: SK-MEL-5 melanoma
[2] = test system: ACHN renal
[3] = test system: UACC-62 melanoma
[4] = test system: MALME-3M melanoma
[5] = test system: RPMI-8226 leukemia
[6] = test system: MDA-MB-435
[7] = test system: MOLT-4 leukemia
[8] = test system: NCI/ADR-RES ovarian
[9] = test system: UO-31 renal
[10] = test system: U251 CNS
[11] = test system: COLO 205 colon
[12] = test system: K-562 leukemia
[13] = test system: A549 NSCLC
[14] = test system: HCC-2998 colon
[15] = test system: M14 melanoma
[16] = test system: A498 renal
[17] = test system: SK-MEL-28 melanoma
[18] = test system: NCI-H23 lung
[19] = test system: OVCAR-5 ovarian
[20] = test system: HL-60(TB) leukemia

| SMILES | TGI [1] | TGI [2] | TGI [3] | TGI [4] | TGI [5] | TGI [6] | TGI [7] | TGI [8] | TGI [9] | TGI [10] | TGI [11] | TGI [12] | TGI [13] | TGI [14] | TGI [15] | TGI [16] | TGI [17] | TGI [18] | TGI [19] | TGI [20] |
| --- | --- | --- | --- | --- | --- | --- | --- | --- | --- | --- | --- | --- | --- | --- | --- | --- | --- | --- | --- | --- |
| CCCCOC(=O)C1CN2C=CC=NC2=NC1(C(F)(F)F)C(F)(F)F (stereo not given) | > 100 µM | > 100 µM | > 100 µM | > 100 µM | > 100 µM | > 100 µM | > 100 µM | > 100 µM | > 100 µM | > 100 µM | > 100 µM | > 100 µM | > 100 µM | > 100 µM | > 100 µM | > 100 µM | > 100 µM | > 100 µM | > 100 µM | > 100 µM |
| O=C1OCC2(CO1)CC1C=CC2C1 (stereo not given) | > 100 µM | > 100 µM | > 100 µM | > 100 µM | > 100 µM | > 100 µM | > 100 µM | > 100 µM | > 100 µM | > 100 µM | > 100 µM | > 100 µM | > 100 µM | > 100 µM | > 100 µM | > 100 µM | > 100 µM | > 100 µM | > 100 µM | > 100 µM |
| C=CC1ON(C)CCc2cc(OC)c(OC)cc21 (stereo not given) | > 100 µM | > 100 µM | > 100 µM | > 100 µM | > 100 µM | > 100 µM | > 100 µM | > 100 µM | > 100 µM | > 100 µM | > 100 µM | > 100 µM | > 100 µM | > 100 µM | > 100 µM | > 100 µM | > 100 µM | > 100 µM | > 100 µM | > 100 µM |
| O=C1CCCC2=C(N1)C(=O)C=CC2=O | 57.1 µM | 55.1 µM | 56.7 µM | 56.6 µM | 60.2 µM | 32.7 µM | 31.5 µM | > 70.5 µM | 57.9 µM | 58.8 µM | 33.3 µM | 32 µM | > 78.5 µM | > 100 µM | 55.1 µM | > 70.4 µM | 60.4 µM | 56.7 µM | 48.6 µM | 73.5 µM |
| O=c1[nH]c(-c2cccc(F)c2)nc2ccccc12 | > 100 µM | > 68.7 µM | > 67.3 µM | > 100 µM | > 100 µM | > 100 µM | > 100 µM | > 100 µM | > 67.9 µM | > 100 µM | > 100 µM | > 100 µM | > 100 µM | > 100 µM | > 100 µM | > 73.2 µM | > 100 µM | > 65.8 µM | > 100 µM | > 100 µM |
| Cn1c(=O)[nH]c2[nH]c3ccccc3c2c1=O | > 100 µM | > 100 µM | > 100 µM | > 100 µM | > 100 µM | > 100 µM | > 100 µM | > 100 µM | > 100 µM | > 100 µM | > 100 µM | > 100 µM | > 100 µM | > 100 µM | > 100 µM | > 100 µM | > 100 µM | > 100 µM | > 100 µM | > 100 µM |
| CCOC(=O)C(Cc1c2ccccc2cc2ccccc12)(NC(C)=O)C(=O)OCC | > 100 µM | > 100 µM | > 80.9 µM | > 100 µM | > 100 µM | > 100 µM | > 90.1 µM | > 100 µM | > 100 µM | > 100 µM | > 100 µM | > 100 µM | > 100 µM | > 100 µM | > 100 µM | > 100 µM | > 100 µM | > 100 µM | > 100 µM | > 100 µM |
